{
  "source": "paper PMC12730222",
  "about": "“The Adaptable Binding Cleft of RmuAP1, a Pepsin-like Peptidase from Rhodotorula mucilaginosa, Enables the Enzyme to Degrade Immunogenic Peptides Derived from Gluten” (Biomolecules, 2025)",
  "biological_target": "T1, RmuAP1 (Rhodotorula mucilaginosa, UniProt A0A9P6W3R0)",
  "T1 construct": "gene PEP1_2; mature catalytic domain (printed as 300 residues, though residue Ile304 is named), pre- and propeptide removed, C-terminal His6; secreted by Yarrowia lipolytica Po1g",
  "T1 sequence (A0A9P6W3R0 96-425)": "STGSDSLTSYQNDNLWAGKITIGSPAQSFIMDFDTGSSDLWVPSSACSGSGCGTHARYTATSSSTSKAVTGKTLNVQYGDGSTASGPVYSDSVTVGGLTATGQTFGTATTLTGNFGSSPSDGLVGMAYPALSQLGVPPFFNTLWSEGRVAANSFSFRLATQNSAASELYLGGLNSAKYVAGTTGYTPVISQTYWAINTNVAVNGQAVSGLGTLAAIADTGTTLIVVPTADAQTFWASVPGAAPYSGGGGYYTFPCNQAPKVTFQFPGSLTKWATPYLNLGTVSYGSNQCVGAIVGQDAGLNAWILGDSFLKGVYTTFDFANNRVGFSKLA",
  "assay": "X-ray crystal structure of the complex, […] Å",
  "format": "binding",
  "details": "crystallised at pH 6.5, 2 M NaCl, 20 °C; active-site cleft, subsites S4 to S2'",
  "note": "Non-standard residues stand in square brackets, D forms with d. Residues, ends and D or L forms follow the SMILES beside them. *: point of attachment. Sta = CC(C)C[C@H](N)[C@@H](O)CC(=O)O; Isovaleryl = CC(C)CC(=O)*",
  "data": [
    {"compound": "CC(C)CC(=O)N[C@H](C(=O)N[C@H](C(=O)N[C@@H](CC(C)C)[C@@H](O)CC(=O)N[C@@H](C)C(=O)N[C@@H](CC(C)C)[C@@H](O)CC(=O)O)C(C)C)C(C)C", "note": "[pepstatin A] (Isovaleryl-VV[Sta]A[Sta]-OH)", "values": [
      {"measurement": "X-ray crystal structure of the complex, 1.78 Å", "result": "The crystal structure of the RmuAP1 complexed with pepstatin A was determined"}
    ]}
  ]
}
